Results published in patent US7408071B2, “N-aryl pyrrolidine derivatives as beta-secretase inhibitors” (Bristol-Myers Squibb Company, priority 2006, dated 2008).

Molecular target: T1, BACE1 enzyme (Homo sapiens, UniProt P56817)
T1 construct: The HEK293-9B.A1 cell line, which overexpresses the BACE1 enzyme, was derived from HEK293 cells; endogenous in cells; washed 48,000xg membrane pellet/homogenate
Assay: Radioligand displacement assay with a radiolabeled BACE inhibitor on HEK293-9B.A1 cell homogenate
Type: binding
Details: displacement of 1 nM tritiated radioligand, HEK293-9B.A1 homogenate, pH 5.0, 1.5 hr at 25° C.; read-out: Activity Rating (activity based on IC50 values)
From the text: There are a number of methods by which inhibitors of the BACE enzyme can be identified experimentally. The enzyme can be obtained from membrane samples from natural tissues or cultured cells or can be expressed recombinantly in a host cell by well known methods of molecular biology. The whole enzyme or a portion thereof can be expressed, for example, in bacterial, insect or mammalian cells to obtain a catalytically active enzyme species. The enzymatic activity and/or ligand binding capability of the enzyme can be assessed within these membrane samples, or the enzyme can be purified to varying extents. As an illustrative example, the nucleic acid sequence encoding the pro and catalytic domains of human BACE can be appended on the 5′ end with an untranslated and signal sequence from the gene for acetylcholinesterase, and on the 3′ end with a sequence encoding a poly-histidine tag. This cDNA can then be expressed in Drosophila melanogaster S2 cells in which the signal and pro sequences of the transcribed/translated protein are removed by cellular proteases and the catalytic domain, appended by a C-terminal poly-histidine tag, is secreted out into the cellular medium. The enzyme can then be purified from the culture medium by nickel affinity chromatography by methods well known to those trained in the art [Mallender, W. et al., (2001) “Characterization of recombinant, soluble beta-secretase from an insect cell expression system.” Mol. Pharmacol. 59: 619-626]. Similar strategies for expressing and purifying various forms of BACE in bacterial, mammalian and other cell types would be known to one skilled in the art. A preferred method for determining the potency of a test compound in binding to the BACE enzyme is by monitoring the displacement of a suitable radioligand.
Radioligand displacement assays with a radiolabeled BACE inhibitor (WO 2004 013098, compound 3, where the methoxy group is substituted for C(^3H)3) were carried out using standard methods (Keen, M. (1999) in Receptor Binding Techniques (Walker, J. M. ed) p. 106 Humana Press, Totowa, N.J.). The HEK293-9B.A1 cell line, which overexpresses the BACE1 enzyme, was derived from HEK293 cells (Simmons, N. L. (1990) A cultured human renal epithelioid cell line responsive to vasoactive intestinal peptide. Exp. Physiol. 75:309-19.) by RAGE™ (Harrington, J. J. et al. (2001) Creation of genome-wide protein expression libraries using random activation of gene expression. Nat. Biotechnol. 19:440-5.; U.S. Pat. Nos. 6,410,266 and 6,361,972). T225 flask cultures of HEK293-9B.A1 were grown to 80% confluency in DMEM supplemented with 2 mM L-glutamine, 10 μg/ml penicillin, 10 μg/ml streptomycin, 3 μg/ml puromycin, 100 nM methotrexate, and 10% fetal bovine serum (Invitrogen, Carlsbad, Calif.), harvested, and resuspended at 2×10^8 cells per 10 ml of lysis buffer consisting of 50 mM HEPES pH 7.0 containing a protease inhibitor cocktail of AEBSF 104 μM, aprotinin 80 nM, leupeptin 2 μM, bestatin 4 μM, pepstatin A 1.5 μM, and E-64 1.4 μM (0.1% of protease inhibitor cocktail P8340, Sigma-Aldrich, St. Louis, Mo.) at 4° C. The resuspended cells were homogenized using a Polytron (Brinkman, Westbury, N.Y.) at setting 6 for 10 sec., then centrifuged at 48,000×g for 10 min. The resulting pellet was washed by repeating the resuspension, homogenization and centrifugation steps. The final pellet was resuspended in buffer at 4° C. to yield a total protein concentration of 5 mg/ml, then aliquots were frozen in liquid nitrogen for further storage at −70° C. Immediately before carrying out a binding assay, an aliquot of cell homogenate was thawed and diluted to a concentration of 100 μg/ml in assay buffer consisting of 50 mM HEPES pH 5.0 and 0.1% CHAPSO. […]

T1 sequence (P56817 46-501): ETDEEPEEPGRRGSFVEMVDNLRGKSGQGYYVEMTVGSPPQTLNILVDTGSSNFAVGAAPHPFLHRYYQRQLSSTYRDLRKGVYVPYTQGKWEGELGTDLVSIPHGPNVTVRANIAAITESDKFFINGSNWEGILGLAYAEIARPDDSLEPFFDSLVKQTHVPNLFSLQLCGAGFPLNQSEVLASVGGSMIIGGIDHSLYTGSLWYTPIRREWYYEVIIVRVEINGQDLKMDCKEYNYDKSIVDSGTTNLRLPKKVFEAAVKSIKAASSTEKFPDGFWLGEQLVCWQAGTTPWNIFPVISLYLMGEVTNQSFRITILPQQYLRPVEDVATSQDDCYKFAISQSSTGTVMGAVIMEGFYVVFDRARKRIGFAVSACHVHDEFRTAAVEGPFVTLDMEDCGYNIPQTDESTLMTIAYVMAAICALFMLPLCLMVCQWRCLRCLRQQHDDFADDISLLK

Row | SMILES | IC50 [nM]
1 | CN(C)CC(=O)Nc1c(Cl)cc(CN/C(N)=N/C(=O)[C@H]2CCCN2c2ccc(C(F)(F)F)cc2)cc1Cl [Example 31, (R)—N-(Amino(3,5-dichloro-4-(2-(dimethylamino)acetamido)-benzylamino)methylene)-1-(4-(trifluoromethyl)phenyl)pyrrolidine-2-carboxamide] | < 100
2 | CO[C@@H]1C[C@@H](C(=O)/N=C(\N)NCc2cc(Cl)c(NC(=O)CN(C)C)c(Cl)c2)N(c2ccccc2)C1 [Example 33, (2S,4R)—N-(Amino(3,5-dichloro-4-(2-(dimethylamino)acetamido)benzylamino)methylene)-4-methoxy-1-phenylpyrrolidine-2-carboxamide] | < 100
3 | COc1ccc(N2CCC[C@H]2C(=O)/N=C(\N)NCc2cc(Cl)c(N)c(Cl)c2)cc1 [Example 4, (S)—N-((4-Amino-3,5-dichlorobenzylamino)(amino)methylene)-1-(4-methoxyphenyl)pyrrolidine-2-carboxamide] | 100 to 1000
4 | N/C(=N\C(=O)[C@@H]1CCCN1c1ccccc1)NCc1cc(Cl)c(N)c(Cl)c1 [Example 1, (S)—N-((4-Amino-3,5-dichlorobenzylamino)(amino)methylene)-1-phenylpyrrolidine-2-carboxamide] | 100 to 1000
5 | CO[C@@H]1C[C@@H](C(=O)/N=C(\N)NCc2cc(Cl)c(NC(C)=O)c(Cl)c2)N(c2ccccc2)C1 [Example 32, (2S,4R)—N-((4-Acetamido-3,5-dichlorobenzylamino)(amino)-methylene)-4-methoxy-1-phenylpyrrolidine-2-carboxamide] | < 100
6 | COc1ccc(N2CCC[C@H]2C(=O)/N=C(\N)NCc2cc(Cl)c(NC(C)=O)c(Cl)c2)cc1 [Example 5, (S)—N-((4-Acetamido-3,5-dichlorobenzylamino)(amino)methylene)-1-(4-methoxyphenyl)pyrrolidine-2-carboxamide] | 100 to 1000
7 | CN(C)CC(=O)Nc1c(Cl)cc(CN/C(N)=N/C(=O)[C@@H]2CCCN2c2ccccc2)cc1Cl [Example 3, (S)—N-((3,5-Dichloro-4-(2-(dimethylamino)-acetamido)-benzylamino)(amino)methylene)-1-phenylpyrrolidine-2-carboxamide] | 100 to 1000
8 | COc1ccc(N2CCC[C@H]2C(=O)/N=C(\N)NCc2cc(Cl)c(NC(=O)CN(C)C)c(Cl)c2)cc1 [Example 6, (S)—N-((3,5-Dichloro-4-(2-(dimethylamino)acetamido)benzylamino)-(amino)methylene)-1-(4-methoxyphenyl)pyrrolidine-2-carboxamide] | 100 to 1000
9 | CC(=O)Nc1c(Cl)cc(CN/C(N)=N/C(=O)[C@@H]2CCCN2c2ccccc2)cc1Cl [Example 2, (S)—N-((4-Acetamido-3,5-dichlorobenzylamino)(amino)methylene)-1-phenylpyrrolidine-2-carboxamide] | 100 to 1000
10 | CC(=O)Nc1c(Cl)cc(CN/C(N)=N/C(=O)C2C3CC3CN2c2ccccc2)cc1Cl (stereo not drawn) [Example 34, cis-N-((4-Acetamido-3,5-dichlorobenzylamino)(amino)methylene)-3-phenyl-3-azabicyclo[3.1.0]hexane-2-carboxamide] | 100 to 1000
